# Results from article PMC10353187, “Discovery of a new potent oxindole multi-kinase inhibitor among a series of designed 3-alkenyl-oxindoles with ancillary carbonic anhydrase inhibitory activity as antiproliferative agents” (BMC Chemistry, 2023).
# Experiments:
# [1] = molecular target: hCA IX (Homo sapiens, UniProt Q16790); assay: Stopped flow CO2 hydrase assay; settings: for Selectivity ratio I/IX: Ki hCA I / Ki hCA IX; for Selectivity ratio II/IX: Ki hCA II / Ki hCA IX
# [2] = test system: NCI-H226; assay: NCI-60 single-dose antiproliferative assay (SRB); type: cell-based; settings: Homo sapiens; 10 μM single dose; NCI-H226, Non-small cell lung cancer; read-out: Cell Growth inhibition Percent
# In short: (§1)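 Readout is sulforhodamine B absorbance at 515 nm after TCA fixation, converted to percent growth versus time-zero (Tz) and control (C) plates and reported as GI%. Compounds were tested once at 10 µM for 48 h in RPMI 1640 containing 5% FBS.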
# [3] = test system: ACHN; assay: NCI-60 single-dose antiproliferative assay (SRB); type: cell-based; settings: Homo sapiens, 10 μM single dose, Renal cancer, read-out: Cell Growth inhibition Percent
# In short: as §1
# [4] = test system: IGROV1; assay: NCI-60 single-dose antiproliferative assay (SRB); type: cell-based; settings: Homo sapiens, IGROV-1; 10 μM single dose; IGROV1, Ovarian Cancer; read-out: Cell Growth inhibition Percent
# In short: as §1
# [5] = test system: M14; assay: NCI-60 single-dose antiproliferative assay (SRB); type: cell-based; settings: Homo sapiens; 10 μM single dose; M14, Melanoma; read-out: Cell Growth inhibition Percent
# In short: as §1
# [6] = test system: A498; assay: NCI-60 single-dose antiproliferative assay (SRB); type: cell-based; settings: Homo sapiens; 10 μM single dose; A498, Renal cancer; read-out: Cell Growth inhibition Percent
# In short: as §1
# [7] = test system: SW-620; assay: NCI-60 single-dose antiproliferative assay (SRB); type: cell-based; settings: Homo sapiens; 10 μM single dose; SW-620, Colon cancer; read-out: Cell Growth inhibition Percent
# In short: as §1
# [8] = test system: A549/ATCC; assay: NCI-60 single-dose antiproliferative assay (SRB); type: cell-based; settings: Homo sapiens, 10 μM single dose, Non-small cell lung cancer, read-out: Cell Growth inhibition Percent
# In short: as §1
# [9] = test system: SK-MEL-5; assay: NCI-60 single-dose antiproliferative assay (SRB); type: cell-based; settings: Homo sapiens; 10 μM single dose; SK-MEL-5, Melanoma; read-out: Cell Growth inhibition Percent
# In short: as §1
# [10] = test system: HOP-62; assay: NCI-60 single-dose antiproliferative assay (SRB); type: cell-based; settings: Homo sapiens; 10 μM single dose; HOP-62, Non-small cell lung cancer; read-out: Cell Growth inhibition Percent
# In short: as §1
# [11] = test system: RXF 393; assay: NCI-60 single-dose antiproliferative assay (SRB); type: cell-based; settings: Homo sapiens; 10 μM single dose; RXF 393, Renal cancer; read-out: Cell Growth inhibition Percent
# In short: as §1
# [12] = test system: UACC-62; assay: NCI-60 single-dose antiproliferative assay (SRB); type: cell-based; settings: Homo sapiens; 10 μM single dose; UACC-62, Melanoma; read-out: Cell Growth inhibition Percent
# In short: as §1
# [13] = test system: U251; assay: NCI-60 single-dose antiproliferative assay (SRB); type: cell-based; settings: Homo sapiens, U-251; 10 μM single dose; U251, CNS cancer; read-out: Cell Growth inhibition Percent
# In short: as §1
# [14] = test system: SF-295; assay: NCI-60 single-dose antiproliferative assay (SRB); type: cell-based; settings: Homo sapiens; 10 μM single dose; SF-295, CNS cancer; read-out: Cell Growth inhibition Percent
# In short: as §1
# [15] = test system: K-562; assay: NCI-60 single-dose antiproliferative assay (SRB); type: cell-based; settings: Homo sapiens, K562; 10 μM single dose; K-562, Leukemia; read-out: Cell Growth inhibition Percent
# In short: as §1
# [16] = test system: RPMI-8226; assay: NCI-60 single-dose antiproliferative assay (SRB); type: cell-based; settings: Homo sapiens; 10 μM single dose; RPMI-8226, Leukemia; read-out: Cell Growth inhibition Percent
# In short: as §1
# [17] = test system: HCT-15; assay: NCI-60 single-dose antiproliferative assay (SRB); type: cell-based; settings: Homo sapiens; 10 μM single dose; HCT-15, Colon cancer; read-out: Cell Growth inhibition Percent
# In short: as §1
# [18] = test system: HCT-116; assay: NCI-60 single-dose antiproliferative assay (SRB); type: cell-based; settings: Homo sapiens; 10 μM single dose; HCT-116, Colon cancer; read-out: Cell Growth inhibition Percent
# In short: as §1
Ki [1] [µM],Selectivity ratio I/IX [1],Selectivity ratio II/IX [1],SMILES,inhibition at 10 µM [2] [%],inhibition at 10 µM [3] [%],inhibition at 10 µM [4] [%],inhibition at 10 µM [5] [%],inhibition at 10 µM [6] [%],inhibition at 10 µM [7] [%],inhibition at 10 µM [8] [%],inhibition at 10 µM [9] [%],inhibition at 10 µM [10] [%],inhibition at 10 µM [11] [%],inhibition at 10 µM [12] [%],inhibition at 10 µM [13] [%],inhibition at 10 µM [14] [%],inhibition at 10 µM [15] [%],inhibition at 10 µM [16] [%],inhibition at 10 µM [17] [%],inhibition at 10 µM [18] [%]
> 10,,,"O=C1Nc2ccccc2C1=CNc1ccc(C(=O)O)cc1 [Compound 4c, 4-{[(2-Oxoindolin-3-ylidene)methyl]amino}benzoic acid]",11.4,1.58,24.1,2.15,20.1,4.95,9.11,1.74,32,29.6,,,,,,,
0.0842,0.100,0.046,"NS(=O)(=O)c1nnc(NC=C2C(=O)Nc3ccccc32)s1 [Compound 4d, 5-{[(2-Oxoindolin-3-ylidene)methyl]amino}-1,3,4-thiadiazole-2-sulfonamide]",4.95,6.28,23.5,6.04,,,,1.52,13.4,,3.05,0.06,0.84,,,,
0.208,30.48,4.39,"NS(=O)(=O)N/C=C1/C(=O)Nc2ccccc21 [Compound 5, 3-(sulfamidmethylene)indoline-2-one]",8.23,10.9,18.6,2.01,,,,1.04,9.49,,4.35,2.06,,,,,
> 10,,,"O=C1Nc2ccccc2C1=CNc1ccc(C(=O)Nc2ccc(S(=O)(=O)Nc3ncccn3)cc2)cc1 [Compound 9b, 4-{[(2-Oxoindolin-3-ylidene)methyl]amino}-N-{4-[N-(pyrimidin-2-yl)sulfamoyl]phenyl}benzamide]",12.2,10.5,21.3,1.44,9.11,,,6.95,27.7,,7.84,,,3.5,,,
0.217,1.48,3.43,"NS(=O)(=O)c1ccc(NCc2ccc(NC=C3C(=O)Nc4ccccc43)cc2)cc1 [Compound 11a, 4-{[4-({[2-Oxoindolin-3-ylidene]methyl}amino)benzyl]amino}benzenesulfonamide]",19.1,7.22,32.7,,,,4.86,5.94,30.5,26.2,,,,0.06,,,
7.86,1.16,0.34,"O=C1Nc2ccccc2C1=CNc1ccc(CNc2ccc(S(=O)(=O)Nc3ncccn3)cc2)cc1 [Compound 11b, 4-{[4-({[2-Oxoindolin-3-ylidene]methyl}amino)benzyl]amino}-N-(pyrimidin-2-yl)benzenesulfonamide]",16.8,16.7,23.5,0.4,,4.6,,15.2,11.3,,3.27,14.4,0.84,32.8,28.9,9.43,13.4
> 10,,,"O=C1Nc2ccccc2C1=CNc1ccc(C(=O)C=CNc2nccs2)cc1 [Compound 13c, 3-{[(4-{3-[Thiazol-2-ylamino]acryloyl}phenyl)amino]methylene}indolin-2-one]",1.09,,5.94,,,,21.6,5.29,12,,,,,24.8,35,12,21.9

SMILES,Ki [1] [µM],Selectivity ratio I/IX [1],Selectivity ratio II/IX [1],inhibition at 10 µM [2] [%],inhibition at 10 µM [3] [%],inhibition at 10 µM [4] [%],inhibition at 10 µM [5] [%],inhibition at 10 µM [6] [%],inhibition at 10 µM [7] [%],inhibition at 10 µM [8] [%],inhibition at 10 µM [9] [%],inhibition at 10 µM [10] [%],inhibition at 10 µM [11] [%],inhibition at 10 µM [12] [%],inhibition at 10 µM [13] [%],inhibition at 10 µM [14] [%],inhibition at 10 µM [15] [%],inhibition at 10 µM [16] [%],inhibition at 10 µM [17] [%],inhibition at 10 µM [18] [%]
"O=C(Nc1ccc(NC=C2C(=O)Nc3ccccc32)cc1)Nc1nccs1 [Compound 15c, 1-{4-[((2-Oxoindolin-3-ylidene)methyl)amino]phenyl}-3-(thiazol-2-yl)urea]",> 10,,,70,59.3,70.5,81.5,108,78.6,43.4,73.2,62.7,120,75.1,58,29.4,82.7,16.4,71,73
